The assay addresses T1, hSTING (Homo sapiens, UniProt Q86WV6, G230A/H232R/R293Q/R71H).
T1 construct: host or cells: THP1-Dual KO-IFNAR2 cells
In words: STING reporter assay (luciferase) in THP1-Dual KO-IFNAR2 cells stimulated with 2′3′cGAMP. The following applies: 2′3′cGAMP 15 μM, 24 h. It is filed as cell-based. Summed up: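 THP1-Dual KO-IFNAR2 cells (2×10E6 cells/mL) were treated with compound at 0.0017-100 μM final plus 15 μM final 2′3′cGAMP delivered with Lipofectamine 2000. After 24 h at 37° C., secreted luciferase in supernatant was read by QUANTI-Luc luminescence and EC50 values were fitted.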
On the technique in general: Reporter assays use an easily measured gene product as a stand-in for the process of interest.

The structures appear in SMILES notation.

Here are results for 33 molecules from patent US20230115274A1, “COMPOUNDS AND COMPOSITIONS FOR TREATING CONDITIONS ASSOCIATED WITH STING ACTIVITY” (IFM Due, Inc., priority 2019, published 2023).

T1 sequence (Q86WV6 whole entry R71H/G230A/H232R/R293Q): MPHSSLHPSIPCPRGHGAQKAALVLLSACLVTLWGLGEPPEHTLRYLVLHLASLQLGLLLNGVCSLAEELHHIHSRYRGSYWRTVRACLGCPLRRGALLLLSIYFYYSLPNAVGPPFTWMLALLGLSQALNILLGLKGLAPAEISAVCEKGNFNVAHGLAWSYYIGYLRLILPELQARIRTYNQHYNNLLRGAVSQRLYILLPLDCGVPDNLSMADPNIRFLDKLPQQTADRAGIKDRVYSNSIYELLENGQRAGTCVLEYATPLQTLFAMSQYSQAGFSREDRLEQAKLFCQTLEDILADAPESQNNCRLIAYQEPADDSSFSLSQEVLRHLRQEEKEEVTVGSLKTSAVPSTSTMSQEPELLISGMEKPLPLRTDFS

As usually defined, the EC50 is the concentration at which the effect is half-maximal. A high value points to weaker potency. As for `O=C(Nc1ccc(C2CCC(F)(F)CC2)nc1)Nc1c[nH]c2ncc(F)c(Br)c12` [Compound 182, 1-(4-bromo-5-fluoro-1H-pyrrolo[2,3-b]pyridin-3-yl)-3-(6-(4,4-difluorocyclohexyl)pyridin-3-yl)urea], the EC50 (class symbols) lay within 5000 to 100000 nM. With `Cn1cc(NC(=O)Nc2ccc(C3CCC(F)(F)CC3)nc2)c2cc(F)cnc21` [Compound 127, 1-(6-(4,4-difluorocyclohexyl)pyridin-3-yl)-3-(5-fluoro-1-methyl-1H-pyrrolo[2,3-b]pyridin-3-yl)urea], for the setting “numeric bounds”, the EC50 is > 30000 nM. Turning to `CNC1CC(n2cc(NC(=O)Nc3ccc(C4CCC(F)(F)CC4)nc3)c3cc(F)cnc32)C1` (stereo not drawn) [Compound 124, 1-(6-(4,4-difluorocyclohexyl)pyridin-3-yl)-3-(5-fluoro-1-(3-(methylamino)cyclobutyl)-1H-pyrrolo[2,3-b]pyridin-3-yl)urea], the EC50 (numeric bounds) was > 30000 nM. Regarding `O=C(Nc1cnc(OC2CCC2)c(F)c1)Nc1c[nH]c2ncc(F)cc12` [Compound 111, 1-(6-cyclobutoxy-5-fluoropyridin-3-yl)-3-(5-fluoro-1H-pyrrolo[2,3-b]pyridin-3-yl)urea], for the setting “class symbols”, the EC50 lay in the range of 200 to 1000 nM. Turning to `O=C(Nc1cnc(C2CCC(F)(F)CC2)c(F)c1)Nc1c[nH]c2cccnc12` [Compound 234, 1-(6-(4,4-difluorocyclohexyl)-5-fluoropyridin-3-yl)-3-(1H-pyrrolo[3,2-b]pyridin-3-yl)urea], where the note is “class symbols”, the EC50 is 200 to 1000 nM.

Molecule `COc1ccc2[nH]cc(NC(=O)Nc3cnc(C4CCC(F)(F)CC4)c(Cl)c3)c2n1` [Compound 233, 1-(5-chloro-6-(4,4-difluorocyclohexyl)pyridin-3-yl)-3-(5-methoxy-1H-pyrrolo[3,2-b]pyridin-3-yl)urea] gave an EC50 (class symbols) of 40 to 200 nM.

`O=C(Nc1cnc(N2CCN(CC(F)(F)F)CC2)c(Cl)c1)Nc1c[nH]c2cccnc12` [Compound 227, 1-(5-chloro-6-(4-(2,2,2-trifluoroethyl)piperazin-1-yl)pyridin-3-yl)-3-(1H-pyrrolo[3,2-b]pyridin-3-yl)urea] gave an EC50 (class symbols) of 200 to 1000 nM.

Turning to `CN(C)c1ccc2[nH]cc(NC(=O)Nc3cnc(N4CCC(F)(F)CC4)c(F)c3)c2n1` [Compound 175, 1-(6-(4,4-difluoropiperidin-1-yl)-5-fluoropyridin-3-yl)-3-(5-(dimethylamino)-1H-pyrrolo[3,2-b]pyridin-3-yl)urea], the half-maximal effective concentration (EC50) (class symbols) was 5000 to 100000 nM. The molecule `O=C(Nc1cnc(C2CCC(F)(F)CC2)c(F)c1)Nc1c[nH]c2ncc(F)cc12` [Compound 113, 1-(6-(4,4-difluorocyclohexyl)-5-fluoropyridin-3-yl)-3-(5-fluoro-1H-pyrrolo[2,3-b]pyridin-3-yl)urea] returned a concentration giving a half-maximal response (EC50) (class symbols) of 40 to 200 nM.

`COc1ccc2[nH]cc(NC(=O)Nc3ccc(C4CC(F)(F)C4)c(F)c3)c2n1` [Compound 238, 1-(4-(3,3-difluorocyclobutyl)-3-fluorophenyl)-3-(5-methoxy-1H-pyrrolo[3,2-b]pyridin-3-yl)urea]: the EC50 (class symbols) was in the range of 200 to 1000 nM. In the case of `Cc1cc(NC(=O)Nc2c[nH]c3ncc(F)cc23)cnc1N1CCC(C)CC1` [Compound 170, 1-(5-fluoro-1H-pyrrolo[2,3-b]pyridin-3-yl)-3-(5-methyl-6-(4-methylpiperidin-1-yl)pyridin-3-yl)urea], the EC50 (class symbols) is 200 to 1000 nM. The same measure, in the same setting: next, `CC(C)n1cc(-c2cnc3[nH]cc(NC(=O)Nc4ccc(C5CCC(F)(F)CC5)nc4)c3c2)cn1` [Compound 107, 1-(6-(4,4-difluorocyclohexyl)pyridin-3-yl)-3-(5-(1-isopropyl-1H-pyrazol-4-yl)-1H-pyrrolo[2,3-b]pyridin-3-yl)urea]: 200 to 1000 nM.

`Cc1cc(NC(=O)Nc2c[nH]c3ncc(F)cc23)cnc1N1CCC(F)(F)CC1` [Compound 198, 1-(6-(4,4-difluoropiperidin-1-yl)-5-methylpyridin-3-yl)-3-(5-fluoro-1H-pyrrolo[2,3-b]pyridin-3-yl)urea]: for the setting “class symbols”, the 50% effective concentration (EC50) was in the range of 40 to 200 nM. Same read-out and setting: next, `O=C(Nc1cc(Cl)c(N2CCC(F)(F)CC2)cn1)Nc1c[nH]c2ncc(F)cc12` [Compound 186, 1-(4-chloro-5-(4,4-difluoropiperidin-1-yl)pyridin-2-yl)-3-(5-fluoro-1H-pyrrolo[2,3-b]pyridin-3-yl)urea]: 200 to 1000 nM; `O=C(Nc1cnc(C2CCN(CC(F)(F)F)CC2)c(Cl)c1)Nc1c[nH]c2cccnc12` [Compound 222, 1-(5-chloro-6-(1-(2,2,2-trifluoroethyl)piperidin-4-yl)pyridin-3-yl)-3-(1H-pyrrolo[3,2-b]pyridin-3-yl)urea]: 200 to 1000 nM. On the same count and under the same terms, next, `COc1ccc2[nH]cc(NC(=O)Nc3cnc(C4CCC(F)(F)CC4)c(C)c3)c2n1` [Compound 169, 1-(6-(4,4-difluorocyclohexyl)-5-methylpyridin-3-yl)-3-(5-methoxy-1H-pyrrolo[3,2-b]pyridin-3-yl)urea]: 200 to 1000 nM. Take `O=C(Nc1cnc(N2CCN(CCC(F)(F)F)CC2)c(Cl)c1)Nc1c[nH]c2cccnc12` [Compound 225, 1-(5-chloro-6-(4-(3,3,3-trifluoropropyl)piperazin-1-yl)pyridin-3-yl)-3-(1H-pyrrolo[3,2-b]pyridin-3-yl)urea]: the concentration for a half-maximal effect (EC50) (class symbols) was 1000 to 5000 nM. The same measure, in the same setting: next, `O=C(Nc1cnc(N2CC3(C2)CC(F)(F)C3)c(Cl)c1)Nc1c[nH]c2cccnc12` [Compound 223, 1-(5-chloro-6-(6,6-difluoro-2-azaspiro[3.3]heptan-2-yl)pyridin-3-yl)-3-(1H-pyrrolo[3,2-b]pyridin-3-yl)urea]: 200 to 1000 nM; `O=C(Nc1ccc(C2CCC(F)(F)CC2)nc1)Nc1c[nH]c2ncc(F)cc12` [Compound 116, 1-(6-(4,4-difluorocyclohexyl)pyridin-3-yl)-3-(5-fluoro-1H-pyrrolo[2,3-b]pyridin-3-yl)urea]: 200 to 1000 nM. `O=C(Nc1cnc(N2CCC(F)(F)CC2)c(Cl)c1)Nc1c[nH]c2ccc(Br)nc12` [Compound 236, 1-(5-bromo-1H-pyrrolo[3,2-b]pyridin-3-yl)-3-(5-chloro-6-(4,4-difluoropiperidin-1-yl)pyridin-3-yl)urea] showed an EC50 (class symbols) of 40 to 200 nM. Turning to `COc1ccc2[nH]cc(NC(=O)Nc3cnc(N4CCC(F)(F)CC4)c(F)c3)c2n1` [Compound 187, 1-(6-(4,4-difluoropiperidin-1-yl)-5-fluoropyridin-3-yl)-3-(5-methoxy-1H-pyrrolo[3,2-b]pyridin-3-yl)urea], the EC50 (class symbols) was 200 to 1000 nM. In the case of `CC(C)(C)OC(=O)N1CCC(n2cc(NC(=O)Nc3ccc(C4CCC(F)(F)CC4)nc3)c3cc(F)cnc32)CC1` [Compound 103, tert-butyl 4-(3-(3-(6-(4,4-difluorocyclohexyl)pyridin-3-yl)ureido)-5-fluoro-1H-pyrrolo[2,3-b]pyridin-1-yl)piperidine-1-carboxylate], the EC50 (class symbols) is 5000 to 100000 nM. Same read-out and setting: in the case of `COC1CCN(c2ncc(NC(=O)Nc3c[nH]c4ncc(F)cc34)cc2C)CC1` [Compound 194, 1-(5-fluoro-1H-pyrrolo[2,3-b]pyridin-3-yl)-3-(6-(4-methoxypiperidin-1-yl)-5-methylpyridin-3-yl)urea] it was 1000 to 5000 nM.

`COc1cc(NC(=O)Nc2c[nH]c3ncc(F)cc23)cnc1N1CCC(F)(F)CC1` [Compound 165, 1-(6-(4,4-difluoropiperidin-1-yl)-5-methoxypyridin-3-yl)-3-(5-fluoro-1H-pyrrolo[2,3-b]pyridin-3-yl)urea] came in with an EC50 (class symbols) of 200 to 1000 nM. On the same count and under the same terms, in the case of `N#Cc1cc(NC(=O)Nc2c[nH]c3cccnc23)cnc1C1CCC(F)(F)CC1` [Compound 237, 1-(5-cyano-6-(4,4-difluorocyclohexyl)pyridin-3-yl)-3-(1H-pyrrolo[3,2-b]pyridin-3-yl)urea] it was 1000 to 5000 nM. In turn, `CC(=O)n1cc(NC(=O)Nc2ccc(C3CCC(F)(F)CC3)nc2)c2cc(F)cnc21` [Compound 122, 1-(1-acetyl-5-fluoro-1H-pyrrolo[2,3-b]pyridin-3-yl)-3-(6-(4,4-difluorocyclohexyl)pyridin-3-yl)urea] showed an EC50 (class symbols) of 200 to 1000 nM. The molecule `O=C(Nc1cnc(C2CCC(F)(F)CC2)c(Cl)c1)Nc1c[nH]c2ncc(F)cc12` [Compound 199, 1-(5-chloro-6-(4,4-difluorocyclohexyl)pyridin-3-yl)-3-(5-fluoro-1H-pyrrolo[2,3-b]pyridin-3-yl)urea] registered an EC50 (class symbols) of 200 to 1000 nM.

For the setting “class symbols”, `O=C(Nc1cnc(N2CCC3(CC2)CC3)c(Cl)c1)Nc1c[nH]c2cccnc12` [Compound 221, 1-(5-chloro-6-(6-azaspiro[2.5]octan-6-yl)pyridin-3-yl)-3-(1H-pyrrolo[3,2-b]pyridin-3-yl)urea] gave an EC50 of 200 to 1000 nM.

In turn, `Cc1cc(NC(=O)Nc2c[nH]c3ncc(F)cc23)cnc1N1CC(F)(F)C1` [Compound 171, 1-(6-(3,3-difluoroazetidin-1-yl)-5-methylpyridin-3-yl)-3-(5-fluoro-1H-pyrrolo[2,3-b]pyridin-3-yl)urea] had an EC50 (class symbols) of 200 to 1000 nM. Still for that read-out and setting: in the case of `COc1cnc2[nH]cc(NC(=O)Nc3cnc(N4CCC(F)(F)CC4)c(F)c3)c2c1` [Compound 184, 1-(6-(4,4-difluoropiperidin-1-yl)-5-fluoropyridin-3-yl)-3-(5-methoxy-1H-pyrrolo[2,3-b]pyridin-3-yl)urea] it was 200 to 1000 nM; in that of `CC(C)(C)OC(=O)N1CCCC(n2cc(NC(=O)Nc3ccc(C4CCC(F)(F)CC4)nc3)c3cc(F)cnc32)C1` (stereo not drawn) [Compound 102, tert-butyl 3-(3-(3-(6-(4,4-difluorocyclohexyl)pyridin-3-yl)ureido)-5-fluoro-1H-pyrrolo[2,3-b]pyridin-1-yl)piperidine-1-carboxylate], 5000 to 100000 nM. Take `N#Cc1cc(NC(=O)Nc2c[nH]c3ncc(F)cc23)ccc1C1CCC(F)(F)CC1` [Compound 195, 1-(3-cyano-4-(4,4-difluorocyclohexyl)phenyl)-3-(5-fluoro-1H-pyrrolo[2,3-b]pyridin-3-yl)urea]: the EC50 (class symbols) lay within 40 to 200 nM. Still for that read-out and setting: next, `COc1cc2c(NC(=O)Nc3ccc(C4CCC(F)(F)CC4)c(C#N)c3)c[nH]c2cn1` [Compound 154, 1-(3-cyano-4-(4,4-difluorocyclohexyl)phenyl)-3-(5-methoxy-1H-pyrrolo[2,3-c]pyridin-3-yl)urea]: 200 to 1000 nM.
